Assay results: ChEMBL document CHEMBL3046265, “Synthesis, evaluation of antimicrobial activity, and molecular modeling of novel 2-((4-(2H-benzo[d] [1,2,3] triazol-2-yl)piperidin-1-yl)methyl)-5-substituted phenyl-1,3,4-oxadiazoles” (2013)

Assays:
Assay type in all cases: functional
Details in all cases: read-out: IZ
Streptococcus pyogenes [1] = experiment: Antibacterial activity against Streptococcus pyogenes at 900 ug/ml after overnight incubation
Escherichia coli [2] = experiment: Antibacterial activity against Escherichia coli at 600 ug/ml after overnight incubation
Fusarium oxysporum [3] = experiment: Antifungal activity against Fusarium oxysporum at 1200 ug/ml after 48 hr
Exserohilum rostratum [4] = experiment: Antifungal activity against Setosphaeria rostrata at 300 ug/ml after 48 hr
Exserohilum rostratum [5] = experiment: Antifungal activity against Setosphaeria rostrata at 1200 ug/ml after 48 hr
Exserohilum rostratum [6] = experiment: Antifungal activity against Setosphaeria rostrata at 900 ug/ml after 48 hr
Bacillus subtilis [7] = experiment: Antibacterial activity against Bacillus subtilis at 600 ug/ml after overnight incubation
Proteus vulgaris [8] = experiment: Antibacterial activity against Proteus vulgaris at 900 ug/ml after overnight incubation
Klebsiella aerogenes [9] = experiment: Antibacterial activity against Enterobacter aerogenes at 900 ug/ml after overnight incubation
Fusarium oxysporum [10] = experiment: Antifungal activity against Fusarium oxysporum at 900 ug/ml after 48 hr
Bacillus pumilus [11] = experiment: Antibacterial activity against Bacillus pumilus at 900 ug/ml after overnight incubation
Fusarium oxysporum [12] = experiment: Antifungal activity against Fusarium oxysporum at 600 ug/ml after 48 hr
Priestia megaterium [13] = experiment: Antibacterial activity against Bacillus megaterium at 900 ug/ml after overnight incubation
Fusarium oxysporum [14] = experiment: Antifungal activity against Fusarium oxysporum at 300 ug/ml after 48 hr
Enterococcus faecalis [15] = experiment: Antibacterial activity against Enterococcus faecalis at 600 ug/ml after overnight incubation
Candida albicans [16] = experiment: Antifungal activity against Candida albicans at 300 ug/ml after 48 hr
Colletotrichum falcatum [17] = experiment: Antifungal activity against Glomerella tucumanensis at 900 ug/ml after 48 hr
Candida albicans [18] = experiment: Antifungal activity against Candida albicans at 600 ug/ml after 48 hr
Colletotrichum falcatum [19] = experiment: Antifungal activity against Glomerella tucumanensis at 300 ug/ml after 48 hr
Colletotrichum falcatum [20] = experiment: Antifungal activity against Glomerella tucumanensis at 1200 ug/ml after 48 hr
Staphylococcus aureus [21] = experiment: Antibacterial activity against Staphylococcus aureus at 900 ug/ml after overnight incubation
Bacillus pumilus [22] = experiment: Antibacterial activity against Bacillus pumilus at 600 ug/ml after overnight incubation
Staphylococcus aureus [23] = experiment: Antibacterial activity against Staphylococcus aureus at 600 ug/ml after overnight incubation
Escherichia coli [24] = experiment: Antibacterial activity against Escherichia coli at 900 ug/ml after overnight incubation
Klebsiella pneumoniae [25] = experiment: Antibacterial activity against Klebsiella pneumoniae at 900 ug/ml after overnight incubation
Proteus vulgaris [26] = experiment: Antibacterial activity against Proteus vulgaris at 600 ug/ml after overnight incubation
Klebsiella pneumoniae [27] = experiment: Antibacterial activity against Klebsiella pneumoniae at 600 ug/ml after overnight incubation
Streptococcus pyogenes [28] = experiment: Antibacterial activity against Streptococcus pyogenes at 600 ug/ml after overnight incubation
Bacillus subtilis [29] = experiment: Antibacterial activity against Bacillus subtilis at 900 ug/ml after overnight incubation
Candida albicans [30] = experiment: Antifungal activity against Candida albicans at 900 ug/ml after 48 hr
Klebsiella aerogenes [31] = experiment: Antibacterial activity against Enterobacter aerogenes at 600 ug/ml after overnight incubation
Colletotrichum falcatum [32] = experiment: Antifungal activity against Glomerella tucumanensis at 600 ug/ml after 48 hr
Exserohilum rostratum [33] = experiment: Antifungal activity against Setosphaeria rostrata at 600 ug/ml after 48 hr
Candida albicans [34] = experiment: Antifungal activity against Candida albicans at 1200 ug/ml after 48 hr
Priestia megaterium [35] = experiment: Antibacterial activity against Bacillus megaterium at 600 ug/ml after overnight incubation
Enterococcus faecalis [36] = experiment: Antibacterial activity against Enterococcus faecalis at 900 ug/ml after overnight incubation

In the case of `Cc1c(Br)cccc1-c1nnc(CN2CCC(n3nc4ccccc4n3)CC2)o1`, the zone of inhibition at 900 µg/mL (Streptococcus pyogenes [1]) is reported as 9.25 mm, the zone of inhibition at 600 µg/mL (Escherichia coli [2]) is reported as 5.23 mm and the zone of inhibition at 1200 µg/mL (Fusarium oxysporum [3]) is reported as 24.9 mm. For the same compound, the zone of inhibition at 300 µg/mL (Exserohilum rostratum [4]) was 2.98 mm, the zone of inhibition at 1200 µg/mL (Exserohilum rostratum [5]) was 23.9 mm and the zone of inhibition at 900 µg/mL (Exserohilum rostratum [6]) was 11.3 mm. The zone of inhibition at 600 µg/mL (Bacillus subtilis [7]) was 4.8 mm, the zone of inhibition at 900 µg/mL (Proteus vulgaris [8]) was 7.05 mm and the zone of inhibition at 900 µg/mL (Klebsiella aerogenes [9]) was 7.56 mm. It also gave a zone of inhibition at 900 µg/mL (Fusarium oxysporum [10]) of 13.3 mm, a zone of inhibition at 900 µg/mL (Bacillus pumilus [11]) of 8.54 mm and a zone of inhibition at 600 µg/mL (Fusarium oxysporum [12]) of 6.56 mm. The zone of inhibition at 900 µg/mL (Priestia megaterium [13]) was 10.3 mm, the zone of inhibition at 300 µg/mL (Fusarium oxysporum [14]) was 3.42 mm and the zone of inhibition at 600 µg/mL (Enterococcus faecalis [15]) was 5.92 mm. For the same compound, the zone of inhibition at 300 µg/mL (Candida albicans [16]) was 2.09 mm, the zone of inhibition at 900 µg/mL (Colletotrichum falcatum [17]) was 15.4 mm and the zone of inhibition at 600 µg/mL (Candida albicans [18]) was 4.18 mm. It also gave a zone of inhibition at 300 µg/mL (Colletotrichum falcatum [19]) of 3.97 mm, a zone of inhibition at 1200 µg/mL (Colletotrichum falcatum [20]) of 29.3 mm and a zone of inhibition at 900 µg/mL (Staphylococcus aureus [21]) of 10 mm. The zone of inhibition at 600 µg/mL (Bacillus pumilus [22]) was 4.29 mm, the zone of inhibition at 600 µg/mL (Staphylococcus aureus [23]) was 4.8 mm and the zone of inhibition at 900 µg/mL (Escherichia coli [24]) was 9.46 mm. For the same compound, the zone of inhibition at 900 µg/mL (Klebsiella pneumoniae [25]) was 10.2 mm, the zone of inhibition at 600 µg/mL (Proteus vulgaris [26]) was 3.45 mm and the zone of inhibition at 600 µg/mL (Klebsiella pneumoniae [27]) was 5.25 mm. For the same compound, the zone of inhibition at 600 µg/mL (Streptococcus pyogenes [28]) was 4.82 mm, the zone of inhibition at 900 µg/mL (Bacillus subtilis [29]) was 9.8 mm and the zone of inhibition at 900 µg/mL (Candida albicans [30]) was 9.36 mm. The zone of inhibition at 600 µg/mL (Klebsiella aerogenes [31]) was 3.65 mm, the zone of inhibition at 600 µg/mL (Colletotrichum falcatum [32]) was 8.25 mm and the zone of inhibition at 600 µg/mL (Exserohilum rostratum [33]) was 5.25 mm. It also gave a zone of inhibition at 1200 µg/mL (Candida albicans [34]) of 17.9 mm, a zone of inhibition at 600 µg/mL (Priestia megaterium [35]) of 5.3 mm and a zone of inhibition at 900 µg/mL (Enterococcus faecalis [36]) of 12.1 mm.

Compound `Cc1ccc(-c2nnc(CN3CCC(n4nc5ccccc5n4)CC3)o2)cc1Br` has a zone of inhibition at 900 µg/mL (Streptococcus pyogenes [1]) of 5.56 mm, a zone of inhibition at 600 µg/mL (Escherichia coli [2]) of 6.85 mm and a zone of inhibition at 1200 µg/mL (Fusarium oxysporum [3]) of 26.9 mm. It also gave a zone of inhibition at 300 µg/mL (Exserohilum rostratum [4]) of 3.25 mm, a zone of inhibition at 1200 µg/mL (Exserohilum rostratum [5]) of 17.2 mm and a zone of inhibition at 900 µg/mL (Exserohilum rostratum [6]) of 9.86 mm. The zone of inhibition at 600 µg/mL (Bacillus subtilis [7]) was 4.25 mm, the zone of inhibition at 900 µg/mL (Proteus vulgaris [8]) was 10.1 mm and the zone of inhibition at 900 µg/mL (Klebsiella aerogenes [9]) was 7.05 mm. For the same compound, the zone of inhibition at 900 µg/mL (Fusarium oxysporum [10]) was 13.2 mm, the zone of inhibition at 900 µg/mL (Bacillus pumilus [11]) was 6.56 mm and the zone of inhibition at 600 µg/mL (Fusarium oxysporum [12]) was 7.36 mm. The zone of inhibition at 900 µg/mL (Priestia megaterium [13]) was 9.85 mm, the zone of inhibition at 300 µg/mL (Fusarium oxysporum [14]) was 4.21 mm and the zone of inhibition at 600 µg/mL (Enterococcus faecalis [15]) was 3.35 mm. For the same compound, the zone of inhibition at 300 µg/mL (Candida albicans [16]) was 3.23 mm, the zone of inhibition at 900 µg/mL (Colletotrichum falcatum [17]) was 14 mm and the zone of inhibition at 600 µg/mL (Candida albicans [18]) was 5.51 mm. It also gave a zone of inhibition at 300 µg/mL (Colletotrichum falcatum [19]) of 4.22 mm, a zone of inhibition at 1200 µg/mL (Colletotrichum falcatum [20]) of 25.6 mm and a zone of inhibition at 900 µg/mL (Staphylococcus aureus [21]) of 11.2 mm. The zone of inhibition at 600 µg/mL (Bacillus pumilus [22]) was 3.32 mm, the zone of inhibition at 600 µg/mL (Staphylococcus aureus [23]) was 5.85 mm and the zone of inhibition at 900 µg/mL (Escherichia coli [24]) was 11.1 mm. For the same compound, the zone of inhibition at 900 µg/mL (Klebsiella pneumoniae [25]) was 12.8 mm, the zone of inhibition at 600 µg/mL (Proteus vulgaris [26]) was 4.85 mm and the zone of inhibition at 600 µg/mL (Klebsiella pneumoniae [27]) was 6.02 mm. For the same compound, the zone of inhibition at 600 µg/mL (Streptococcus pyogenes [28]) was 2.25 mm, the zone of inhibition at 900 µg/mL (Bacillus subtilis [29]) was 9.05 mm and the zone of inhibition at 900 µg/mL (Candida albicans [30]) was 9.26 mm. For the same compound, the zone of inhibition at 600 µg/mL (Klebsiella aerogenes [31]) was 3.55 mm, the zone of inhibition at 600 µg/mL (Colletotrichum falcatum [32]) was 7.8 mm and the zone of inhibition at 600 µg/mL (Exserohilum rostratum [33]) was 5.21 mm. For the same compound, the zone of inhibition at 1200 µg/mL (Candida albicans [34]) was 17.8 mm, the zone of inhibition at 600 µg/mL (Priestia megaterium [35]) was 5.85 mm and the zone of inhibition at 900 µg/mL (Enterococcus faecalis [36]) was 5.56 mm.
